This is an account of results in patent US20120090502A1, “DIS-AZO COMPOUND AND OIL INK AND ELECTROWETTING DISPLAYS COMPRISING THE SAME” (JINTEX CORPORATION LTD., priority 2010, published 2012).

What all share (type): physicochemical
Data set [1] in a line: oil ink performance test: viscosity and surface tension. On the set-up: surface tension (dyne/cm^2): unit not given here. The note with it: for surface tension (dyne/cm^2): oil ink in dodecane; for viscosity (cp): oil ink: 1.0 g dye dispersed in 10 g dodecane, filtered 0.45 μm. As to the method: 1.0 g of purified dye (dis-azo compound of the present invention) weighed was dispersed in 10 g of dodecane and then heated to 80° C. and stirred for one hour. After that, the mixture solution was removed to a ultrasonic oscillator and oscillated for one hour and then filtered through 0.45 μm filter to obtain the oil ink of the present invention. […] According to Table 3, ail of the oil ink of the present invention fulfills elementary conditions of oil ink for electrowetting display.

Another data set in a line: solubility in dodecane.
The nature of data set [2]: oil ink tested by UV-Vis spectrophotometer. Set-up: FoM / value of a / value of b: scale not given here. To be noted: oil ink in dodecane; for FoM: Figure of Merit = ε×C; for full width at half maximum (nm): wavelength range at half height of absorption at λ max. As to the method:
1.0 g of purified dye (dis-azo compound of the present invention) weighed was dispersed in 10 g of dodecane and then heated to 80° C. and stirred for one hour. After that, the mixture solution was removed to a ultrasonic oscillator and oscillated for one hour and then filtered through 0.45 μm filter to obtain the oil ink of the present invention. The oil ink of the present invention was tested by UV-Vis spectrophotometer. According to Table 3, ail of the oil ink of the present invention fulfills elementary conditions of oil ink for electrowetting display.

A short description of data set [3]: maximum absorption wavelength and molar absorption coefficient in dodecane. The note with it: for wavelength (nm)/dodecane: maximum absorption wavelength.

Regarding `CCCCCCCCCCc1ccc(N=Nc2ccc(N=Nc3ccc4c5c(cccc35)NC(C)(CCCC)N4)c3ccccc23)cc1` (racemic) [D10-C1,4], in data set [1], the “surface tension (dyne/cm^2)” value was 23.6 and the “viscosity (cp)” value was found to be 2.42 cp. For the same molecule, the “solubility (%)” value in the data set “solubility in dodecane” was found to be 2.15%. Besides, in data set [2], the FoM is 232 and the “full width at half maximum (nm)” value is given as 320 nm. For the same molecule, in data set [3], the “ε (molar absorption coefficient)” value is reported as 9.11 × 10^3 and the “wavelength (nm)/dodecane” value was 560 nm.
For the molecule `CCCCc1ccc(N=Nc2ccc(N=Nc3ccc4c5c(cccc35)NC(CC(C)C)(CC(C)C)N4)c3ccccc23)cc1` [D4-C4,4], in data set [1], the “surface tension (dyne/cm^2)” value came out at 24.5 and the “viscosity (cp)” value worked out at 2.21 cp. Further, in “solubility in dodecane”, the “solubility (%)” value stood at 4.00%. In addition, in data set [2], the FoM is 191 and the “full width at half maximum (nm)” value stood at 250 nm. For the same molecule, in data set [3], the “ε (molar absorption coefficient)” value is 3.41 × 10^3 and the “wavelength (nm)/dodecane” value is recorded as 560 nm.
In the case of `CCCCCCCCc1ccc(N=Nc2ccc(N=Nc3ccc4c5c(cccc35)NC(CC)(CC)N4)c3ccccc23)cc1` [D8-C2,2], in data set [1], the “surface tension (dyne/cm^2)” value came to 23.2 and the “viscosity (cp)” value was 2.42 cp. Moreover, the “solubility (%)” value in “solubility in dodecane” was determined as 6.00%. For the same molecule, in data set [2], the FoM was determined as 526 and the “full width at half maximum (nm)” value was 300 nm. In data set [3], the “ε (molar absorption coefficient)” value is 7.05 × 10^3 and the “wavelength (nm)/dodecane” value is on record as 580 nm.
On to `CCCCCCCCc1ccc(N=Nc2ccc(N=Nc3ccc4c5c(cccc35)NC(CC(C)C)(CC(C)C)N4)c3ccccc23)cc1` [D8-C4,4], for which, in data set [1], the “surface tension (dyne/cm^2)” value was determined as 23.5 and the “viscosity (cp)” value is listed as 2.33 cp. The “solubility (%)” value in “solubility in dodecane” is on record as 2.96%. In data set [2], the FoM came out at 320 and the “full width at half maximum (nm)” value turned out to be 300 nm. Besides, in data set [3], the “ε (molar absorption coefficient)” value is 9.50 × 10^3 and the “wavelength (nm)/dodecane” value worked out at 580 nm.
Take `CCCCCCCCCCc1ccc(N=Nc2ccc(N=Nc3ccc4c5c(cccc35)NC(CC)(CC)N4)c3ccccc23)cc1` [D10-C2,2]: in data set [1], the “surface tension (dyne/cm^2)” value is recorded as 25.1 and the “viscosity (cp)” value is 2.35 cp. Also, the “solubility (%)” value in the data set “solubility in dodecane” worked out at 8.00%. In addition, in data set [2], the FoM was determined as 779 and the “full width at half maximum (nm)” value came out at 320 nm. Also, in data set [2] (hue), the “value of L” value is 0.01, the value of a came to 0.38 and the value of b was −0.18. Further, in data set [3], the “ε (molar absorption coefficient)” value is 8.13 × 10^3 and the “wavelength (nm)/dodecane” value came out at 580 nm.
In the case of `CCCCCCCCCCc1ccc(N=Nc2ccc(N=Nc3ccc4c5c(cccc35)NC(CC(C)C)(CC(C)C)N4)c3ccccc23)cc1` [D10-C4,4], in data set [1], the “surface tension (dyne/cm^2)” value was 24.8 and the “viscosity (cp)” value worked out at 2.55 cp. In addition, the “solubility (%)” value in the data set “solubility in dodecane” is on record as 1.23%. Moreover, in data set [2], the FoM is reported as 136 and the “full width at half maximum (nm)” value is reported as 320 nm. For the same molecule, in data set [3], the “ε (molar absorption coefficient)” value is on record as 9.95 × 10^3 and the “wavelength (nm)/dodecane” value is recorded as 590 nm.
